SMILES strings stand for the structures. *1 amine or outer side, *2 acyl side, *3 side chain or, on linkers, in order; H or OH if unused. Where a SMILES comes first, the peptide text is derived from it. The star is where a group is joined. C22 diacid = O=C(O)CCCCCCCCCCCCCCCCCCCCC(=O)*; C20 diacid = O=C(O)CCCCCCCCCCCCCCCCCCC(=O)*; C18 diacid = O=C(O)CCCCCCCCCCCCCCCCC(=O)*; C16 diacid = O=C(O)CCCCCCCCCCCCCCC(=O)*; γGlu = O=C(O)[C@H](CCC(=O)[*:2])N[*:1]; Trx = NC[C@H]1CC[C@H](C(=O)O)CC1; Inp = O=C(O)C1CCNCC1

This data set in a line: Heat accelerated stability assay under a neutral condition. The data set is classed as physicochemical. Conditions: pH about 7.4, 40°C; for Changes in characteristics or properties, 0d / Changes in characteristics or properties, 7d: 1 mg/mL, phosphate; for Concentration change (7d-0d)/%: Day 7 vs Day 0, reversed phase chromatography; for Purity Change% (7d-0d) / Purity Change% (26d-0d): purity from reversed phase chromatography-214 nm; for Purity Change% (7d-0d): Day 7 vs Day 0; for Purity Change% (26d-0d): Day 26 vs Day 0. How it is done: The lyophilized powder (1 mg/mL) of calcitonin analogues or derivatives prepared in accordance with the method of Example 1 were mixed with sodium dihydrogen phosphate (1.42 mg/mL) and dissolved in ultrapure water in the indicated mass-volume ratios. After adjusting pH to about 7.4 with hydrochloric acid/sodium hydroxide, the solution was filtered into a sterilized vial in a clean bench using a 0.22 µm sterile filter. The vial was then capped and placed into the stability test chamber at 40°C. Detections were made on Days 7 (7d) and 26 (26d), and during the assay, changes in the characteristics and properties of the polypeptides were observed and recorded. The sample was then centrifuged for 3 min at 10000 rpm at 4°C, and the supernatant was transferred to a liquid phase sample vial for detecting the concentration and purity of the polypeptides using liquid phase chromatography described as below, wherein the concentration of the polypeptide = peak area/injection volume/extinction coefficient/60×flow rate, and the purity of the polypeptide = target peak area/total peak area× 100%.
Conditions of the reversed phase chromatography Flow rate: 1.0 ml/min; Autosampler temperature: 15°C; Column temperature: 25°C; Detection wavelengths: 280 nm and 214 nm; Mobile phase A: 100% H2O+0.05% TFA; Mobile phase B: 100% ACN; and Gradient of elution listed in Table 4: Table 4. Listing of the gradient of elution in the liquid phase chromatography
Results were shown below in Tables 5, 6, and 7. A difference of more than 5% in content as compared with the initial value was typically assumed (for example, as prescribed by the Chinese Pharmacopeia (2020 Edition)) to be a significant change. Within a reasonable margin of error, a decrease of less than 1% from the initial value to the detected content is denoted as "no change" below. Table 5. Changes in characteristics or properties in the heat accelerated stability assay

In the case of `CC(C)C[C@H](NC(=O)[C@H](CCCNC(=N)N)NC(=O)CNC(=O)[C@H](CC(C)C)NC(=O)[C@@H](NC(=O)[C@H](C)NC(=O)[C@@H](NC(=O)[C@H](CO)NC(=O)[C@H](CC(C)C)NC(=O)[C@H](CCC(N)=O)NC(=O)[C@H](CO)NC(=O)[C@H](C)NC(=O)CC[C@H](NC(=O)CCCCCCCCCCCCCCCCCCCCC(=O)O)C(=O)O)[C@@H](C)O)C(C)C)C(=O)N[C@@H](CO)C(=O)N[C@@H](CC(=O)O)C(=O)N[C@@H](CCC(=O)O)C(=O)N[C@@H](CC(C)C)C(=O)N[C@@H](Cc1c[nH]cn1)C(=O)N[C@@H](CCCNC(=N)N)C(=O)N[C@@H](CC(C)C)C(=O)N[C@@H](CCC(N)=O)C(=O)N[C@@H](CC(=O)O)C(=O)N[C@@H](Cc1ccc(O)cc1)C(=O)N1CCC[C@H]1C(=O)N[C@@H](CCCNC(=N)N)C(=O)N[C@H](C(=O)N[C@@H](CC(=O)O)C(=O)N[C@H](C(=O)NCC(=O)N[C@@H](CO)C(=O)NCC(=O)N[C@@H](CO)C(=O)N1CCC[C@H]1C(N)=O)C(C)C)[C@@H](C)O` [M38] ({C22 diacid-γGlu}-ASQLSTAVLGRLSDELHRLQDYPRTDVGSGSP-NH2), the “Changes in characteristics or properties, 0d” value (from here on “Changes … 0d”) was “Clear”; the “Changes in characteristics or properties, 7d” value (from here on “Changes … 7d”) was “Clear”; the “Concentration change (7d-0d)/%” value is listed as “No change (a decrease of less than 1% from the initial value to the detected content is denoted as "no change")”; the “Purity Change% (7d-0d)” value is “No change (a decrease of less than 1% from the initial value to the detected content is denoted as "no change")”. Besides, the “Purity Change% (26d-0d)” value is “No change (a decrease of less than 1% from the initial value to the detected content is denoted as "no change")”.
On to `CC(C)C[C@H](NC(=O)[C@H](CCCNC(=N)N)NC(=O)CNC(=O)[C@H](CC(C)C)NC(=O)[C@@H](NC(=O)[C@H](C)NC(=O)[C@@H](NC(=O)[C@H](CO)NC(=O)[C@H](CC(C)C)NC(=O)[C@H](CCC(N)=O)NC(=O)[C@H](CO)NC(=O)[C@H](C)NC(=O)CC[C@H](NC(=O)CCCCCCCCCCCCCCC(=O)O)C(=O)O)[C@@H](C)O)C(C)C)C(=O)N[C@@H](CO)C(=O)N[C@@H](CC(=O)O)C(=O)N[C@@H](CCC(=O)O)C(=O)N[C@@H](CC(C)C)C(=O)N[C@@H](Cc1c[nH]cn1)C(=O)N[C@@H](CCCNC(=N)N)C(=O)N[C@@H](CC(C)C)C(=O)N[C@@H](CCC(N)=O)C(=O)N[C@@H](CC(=O)O)C(=O)N[C@@H](Cc1ccc(O)cc1)C(=O)N1CCC[C@H]1C(=O)N[C@@H](CCCNC(=N)N)C(=O)N[C@H](C(=O)N[C@@H](CC(=O)O)C(=O)N[C@H](C(=O)NCC(=O)N[C@@H](CO)C(=O)NCC(=O)N[C@@H](CO)C(=O)N1CCC[C@H]1C(N)=O)C(C)C)[C@@H](C)O` [M40] ({C16 diacid-γGlu}-ASQLSTAVLGRLSDELHRLQDYPRTDVGSGSP-NH2), for which the “Changes … 0d” value is reported as “Clear”; the “Changes … 7d” value is “Clear”; the “Concentration change (7d-0d)/%” value was -2.280%; the “Purity Change% (7d-0d)” value is recorded as -1.67%. In addition, the “Purity Change% (26d-0d)” value was -4.82%.
For the molecule `CC(C)C[C@H](NC(=O)[C@H](CCCNC(=N)N)NC(=O)CNC(=O)[C@H](CC(C)C)NC(=O)[C@@H](NC(=O)[C@H](C)NC(=O)[C@@H](NC(=O)[C@H](CO)NC(=O)[C@H](CC(C)C)NC(=O)[C@H](CCC(N)=O)NC(=O)[C@H](CO)NC(=O)[C@H](C)NC(=O)[C@H](CCC(=O)O)NC(=O)CCCCCCCCCCCCCCCCCCC(=O)O)[C@@H](C)O)C(C)C)C(=O)N[C@@H](CO)C(=O)N[C@@H](CC(=O)O)C(=O)N[C@@H](CCC(=O)O)C(=O)N[C@@H](CC(C)C)C(=O)N[C@@H](Cc1c[nH]cn1)C(=O)N[C@@H](CCCNC(=N)N)C(=O)N[C@@H](CC(C)C)C(=O)N[C@@H](CCC(N)=O)C(=O)N[C@@H](CC(=O)O)C(=O)N[C@@H](Cc1ccc(O)cc1)C(=O)N1CCC[C@H]1C(=O)N[C@@H](CCCNC(=N)N)C(=O)N[C@H](C(=O)N[C@@H](CC(=O)O)C(=O)N[C@H](C(=O)NCC(=O)N[C@@H](CO)C(=O)NCC(=O)N[C@@H](CO)C(=O)N1CCC[C@H]1C(N)=O)C(C)C)[C@@H](C)O` [M41] ({C20 diacid}-EASQLSTAVLGRLSDELHRLQDYPRTDVGSGSP-NH2), the “Changes … 0d” value was “Clear”; the “Changes … 7d” value is listed as “Clear”; the “Concentration change (7d-0d)/%” value was -3.134%; the “Purity Change% (7d-0d)” value is -1.66%. The “Purity Change% (26d-0d)” value is recorded as -5.98%.
`CC(C)C[C@H](NC(=O)[C@H](CCCNC(=N)N)NC(=O)CNC(=O)[C@H](CC(C)C)NC(=O)[C@@H](NC(=O)[C@H](C)NC(=O)[C@@H](NC(=O)[C@H](CO)NC(=O)[C@H](CC(C)C)NC(=O)[C@H](CCC(N)=O)NC(=O)[C@H](CO)NC(=O)[C@H](C)NC(=O)[C@H]1CC[C@H](CNC(=O)CCCCCCCCCCCCCCCCCCC(=O)O)CC1)[C@@H](C)O)C(C)C)C(=O)N[C@@H](CO)C(=O)N[C@@H](CC(=O)O)C(=O)N[C@@H](CCC(=O)O)C(=O)N[C@@H](CC(C)C)C(=O)N[C@@H](Cc1c[nH]cn1)C(=O)N[C@@H](CCCNC(=N)N)C(=O)N[C@@H](CC(C)C)C(=O)N[C@@H](CCC(N)=O)C(=O)N[C@@H](CC(=O)O)C(=O)N[C@@H](Cc1ccc(O)cc1)C(=O)N1CCC[C@H]1C(=O)N[C@@H](CCCNC(=N)N)C(=O)N[C@H](C(=O)N[C@@H](CC(=O)O)C(=O)N[C@H](C(=O)NCC(=O)N[C@@H](CO)C(=O)NCC(=O)N[C@@H](CO)C(=O)N1CCC[C@H]1C(N)=O)C(C)C)[C@@H](C)O` [M45] ({C20 diacid-Trx}-ASQLSTAVLGRLSDELHRLQDYPRTDVGSGSP-NH2): the “Changes … 0d” value is “Clear”; the “Changes … 7d” value is reported as “Clear”; the “Concentration change (7d-0d)/%” value was -2.670%; the “Purity Change% (7d-0d)” value was “No change (a decrease of less than 1% from the initial value to the detected content is denoted as "no change")”. Also, the “Purity Change% (26d-0d)” value is -1.77%.
For `CC(C)C[C@H](NC(=O)[C@H](CCCNC(=N)N)NC(=O)CNC(=O)[C@H](CC(C)C)NC(=O)[C@@H](NC(=O)[C@H](C)NC(=O)[C@@H](NC(=O)[C@H](CO)NC(=O)[C@H](CC(C)C)NC(=O)[C@H](CCC(N)=O)NC(=O)[C@H](CO)NC(=O)[C@H](C)NC(=O)[C@H]1CC[C@H](CNC(=O)CCCCCCCCCCCCCCCCC(=O)O)CC1)[C@@H](C)O)C(C)C)C(=O)N[C@@H](CO)C(=O)N[C@@H](CC(=O)O)C(=O)N[C@@H](CCC(=O)O)C(=O)N[C@@H](CC(C)C)C(=O)N[C@@H](Cc1c[nH]cn1)C(=O)N[C@@H](CCCNC(=N)N)C(=O)N[C@@H](CC(C)C)C(=O)N[C@@H](CCC(N)=O)C(=O)N[C@@H](CC(=O)O)C(=O)N[C@@H](Cc1ccc(O)cc1)C(=O)N1CCC[C@H]1C(=O)N[C@@H](CCCNC(=N)N)C(=O)N[C@H](C(=O)N[C@@H](CC(=O)O)C(=O)N[C@H](C(=O)NCC(=O)N[C@@H](CO)C(=O)NCC(=O)N[C@@H](CO)C(=O)N1CCC[C@H]1C(N)=O)C(C)C)[C@@H](C)O` [M46] ({C18 diacid-Trx}-ASQLSTAVLGRLSDELHRLQDYPRTDVGSGSP-NH2), the “Changes … 0d” value was “Clear”; the “Changes … 7d” value is given as “Clear”; the “Concentration change (7d-0d)/%” value is reported as “No change (a decrease of less than 1% from the initial value to the detected content is denoted as "no change")”; the “Purity Change% (7d-0d)” value is reported as “No change (a decrease of less than 1% from the initial value to the detected content is denoted as "no change")”. Further, the “Purity Change% (26d-0d)” value is -5.67%.
For the molecule `CC(C)C[C@H](NC(=O)[C@H](CCCNC(=N)N)NC(=O)CNC(=O)[C@H](CC(C)C)NC(=O)[C@@H](NC(=O)[C@H](C)NC(=O)[C@@H](NC(=O)[C@H](CO)NC(=O)[C@H](CC(C)C)NC(=O)[C@H](CCC(N)=O)NC(=O)[C@H](CO)NC(=O)[C@H](C)NC(=O)C1CCN(C(=O)CCCCCCCCCCCCCCCCCCC(=O)O)CC1)[C@@H](C)O)C(C)C)C(=O)N[C@@H](CO)C(=O)N[C@@H](CC(=O)O)C(=O)N[C@@H](CCC(=O)O)C(=O)N[C@@H](CC(C)C)C(=O)N[C@@H](Cc1c[nH]cn1)C(=O)N[C@@H](CCCNC(=N)N)C(=O)N[C@@H](CC(C)C)C(=O)N[C@@H](CCC(N)=O)C(=O)N[C@@H](CC(=O)O)C(=O)N[C@@H](Cc1ccc(O)cc1)C(=O)N1CCC[C@H]1C(=O)N[C@@H](CCCNC(=N)N)C(=O)N[C@H](C(=O)N[C@@H](CC(=O)O)C(=O)N[C@H](C(=O)NCC(=O)N[C@@H](CO)C(=O)NCC(=O)N[C@@H](CO)C(=O)N1CCC[C@H]1C(N)=O)C(C)C)[C@@H](C)O` [M47] ({C20 diacid-Inp}-ASQLSTAVLGRLSDELHRLQDYPRTDVGSGSP-NH2), the “Changes … 0d” value is recorded as “Clear”; the “Changes … 7d” value is on record as “Clear”; the “Concentration change (7d-0d)/%” value is given as -3.488%; the “Purity Change% (7d-0d)” value is reported as “No change (a decrease of less than 1% from the initial value to the detected content is denoted as "no change")”. For the same molecule, the “Purity Change% (26d-0d)” value is “No change (a decrease of less than 1% from the initial value to the detected content is denoted as "no change")”.

The values are drawn from patent publication EP4692114A1, “CALCITONIN ANALOGUE, AND DERIVATIVE THEREOF AND USE THEREOF” (Hangzhou Sciwind Biosciences Co., Ltd., priority 2023, dated 2024).
